Experimental data published in patent publication US7589094B2, “N- (3-amino-2-hydroxy-propyl) substituted alkylamide compounds” (Elan Pharmaceuticals, Inc., priority 2001, dated 2009).

| melting point [°C] | SMILES |
| --- | --- |
| 52 to 54 | CCCC1CCC(CC(=O)N[C@@H](Cc2cc(F)cc(F)c2)[C@H](O)CNCc2cccc(CC)c2)CC1=O (stereo partly drawn) [Compound 213, N-{(1S,2R)-1-(3,5-difluorobenzyl)-3-[(3-ethylbenzyl)amino]-2-hydroxypropyl}-2-(3-oxo-4-propylcyclohexyl)acetamide] |
| 139.5 to 149.8 | CCc1cccc(CNC[C@@H](O)[C@H](Cc2cc(F)cc(F)c2)NC(=O)CC2CCCC(=O)C2)c1 (stereo partly drawn) [Compound 214, N-{(1S,2R)-1-(3,5-difluorobenzyl)-3-[(3-ethylbenzyl)amino]-2-hydroxypropyl}-2-(3-oxocyclohexyl)acetamide] |
